# Data reported in publication PMC7304243, “Dimeric γ-AApeptides With Potent and Selective Antibacterial Activity” (Frontiers in Chemistry, 2020).
# Read-outs that look alike come from different tables or passages of the source.
# Tests used:
# MRSA [1] = test: Drug resistance study, 20 passages; format: cell-based, Staphylococcus aureus
# Procedure: Drug resistance has already been recognized as one of the fastest growing threats all over the world. […] The MIC of compound 2 was determined daily, and then the bacteria suspension with half of the MIC was diluted to 10^6 CFU/mL and incubated with compound to test its activity until 20 passages had been reached.
# The experiment was carried out by following our previously reported protocol (Su et al., [2017]; Niu et al., [2018]). The study was conducted for 20 passages.
# [2] = test system: red blood cell (RBC) of mice; test: Hemolysis study (HC50); format: cell-based
# Procedure: Fresh red blood cell (RBC) of mice was collected by centrifuge with the speed of 500 g for 10 mins until the supernatant is clear. Then, the RBC was diluted with PBS for 20-fold. After adding 50 μL PBS in each vial on 96 plates, 1 mg/mL compounds were serial diluted until reaching the lowest concentration 1.9 μg/mL. Diluted RBC was added into each vial and incubated at 37°C for 1 h. Then, plates were centrifuged at 2,301 g (3,500 rpm) for 10 mins. 30 uL supernatant in each vial was added into 100 μL PBS and read Biotek Synergy HT plate reader at 540 nm. The hemolytic activity was calculated by the formula % hemolysis = (Abssample-AbsPBS) / (AbsTriton-AbsPBS) × 100%. 1% Triton X-100 were used as the positive control and 1 × PBS buffer was used as the negative control.
# [3] = test system: methicillin-resistant S. epidermidis (MRSE, RP62A); format: cell-based, Staphylococcus epidermidis; conditions: lowest concentration that completely inhibits growth, repeated three times
# Procedure: (§1) Having obtained all compounds, their antibacterial efficacy was subsequently evaluated by measuring the minimum inhibitory concentration (MIC). Three significant resistant bacteria, including methicillin-resistant Staphylococcus aureus (MRSA) (ATCC 33591), Staphylococcus epidermidis (MRSE) (RP62A), and vancomycin-resistant E. faecalis (VRE) (ATCC 700802), were chosen for our studies. Meanwhile, hemolytic activity (HC50) was also measured to assess the selectivity of these compounds toward bacteria and blood cells. […] Importantly, HC50 of almost all compounds are equal or more than 250 μg/mL. […] This is consistent with our previous findings that significant hydrophobicity, particularly two long alkyl tails, could form hydrophobic clusters that prevent the formation of amphipathic structures necessary for antimicrobial activity (Li et al., [2014b]; Singh et al., [2018]). […] MICs of 10–14 unveiled that proper bulky hydrophobic groups were beneficial in the design of bactericide. These five compounds have the same (3r,5r,7r)-1-methyladamantane side chain but different tails, including C9, as well as C11 alkyl chain, ethylbenzene, and (3r,5r,7r)-1-methyladamantane. Among them, 10, which had no tail, was the best toward MRSA and MRSE, with the MICs of 5 μg/mL and 2 μg/mL respectively. […] Compounds 7 and 8 also shared a similar trend. It appears that compounds with bulky groups have better activity, due to the lager molecular volume or shorter molecular length of these bulky groups. Therefore, the selection of proper hydrophobic bulky groups when designing HDP-mimicking agents is considerably crucial (Wu et al., [2012]; Teng et al., [2016a]).
# (§2) The antimicrobial assay of the compounds was conducted on the following three bacteria strains: methicillin-resistant S.aureus (MRSA, ATCC 33591), methicillin-resistant S. epidermidis (MRSE, RP62A), and vancomycin-resistant E. faecalis (VRE, ATCC 700802). The procedures were followed as reported previously. […] All measurements were repeated at least three times with duplicates each time.
# [4] = test system: methicillin-resistant S. aureus (MRSA, ATCC 33591); format: cell-based, Staphylococcus aureus; conditions: lowest concentration that completely inhibits growth, repeated three times
# Procedure: as §1, §2
# [5] = test system: vancomycin-resistant E. faecalis (VRE, ATCC 700802); format: cell-based; conditions: lowest concentration that completely inhibits growth, repeated three times
# Procedure: as §1, §2
# MRSA [6] = test: Time-kill kinetics; format: cell-based, Staphylococcus aureus
# Procedure: Time-kill kinetic study of compound 2 were investigated. After being incubated from one colony in 4 mL TSB medium overnight at 37 °C while shaking, MRSA was diluted 2,500 times to another fresh 4 mL TSB solution and grew for 6~8 h to mid-logarithmic phase. Suspension [10^6 colony-forming units per milliliter (CFU/mL) according to the read of OD value] was made and then incubated with different concentration of 2 at 37°C for 10 min, 30 min, 60 min, 120 min respectively. The MRSA and drug mixture were diluted 10^2-fold and spread on the TSB agar plates. These plates were incubated at 37°C overnight. The numbers of colonies on each plate were transferred to lg[CFU/mL] and plotted against the incubation time. The experiment was repeated three times with duplicates each time.
# MRSA [7] = test: TEM study; format: cell-based, Staphylococcus aureus; conditions: MRSA 10^6 CFU/mL, 6 μg/mL, 2 h
# Procedure: Transmission electron microscopy (TEM) is a straightforward method to visualize the interruptive effect of compounds on the membrane of bacteria. Mid log phase MRSA without the treatment of compound 2 had intact membrane (Figure 5A).
# After being incubated to mid log phase, MRSA(10^6 CFU/mL) was mixed with 6 μg/mL compound 2 for 2 h. Then the bacteria cells were collected and washed with PBS and DI water. Following that, bacteria was resuspended in deionized water. Control bacterial samples were obtained without adding drugs. Above samples were applied to TEM grids by 5 μL bacteria solution, and the grids were allowed to dry in vacuum oven at the temperature of 45°C for 45 seconds. After being dried, TEM images were obtained on a FEI Morgagni 268D TEM with an Olympus MegaView III camera at 60 kV on the microscope. The microscope used AnalySiS software to run the camera.
# MRSA [8] = test: Fluorescence microscopy, DAPI and PI; format: cell-based, Staphylococcus aureus; conditions: 6 μg/mL, 2 h
# Procedure: Experiments of fluorescent microscopy is also a broadly used method to determine the integrity of bacteria membrane. Propidium iodide (PI) and 4′,6-diamidino-2-henylindole (DAPI) are commercially available dyes that stain dead or injured cells with compromised membrane and all cells irrespective of their viability, respectively. The efficacy of compound 2 to interrupt the bacterial membrane was evaluated by these two dyes.
# Fluorescent dyes propidium iodide (PI) and 4′,6′-diamidino-2-phenylindole dihydrochloride (DAPI) can be used to distinguish the viable cell from the dead cells. After obtaining the mid-logarithmic phase bacteria solution as above, the bacteria solution was diluted 100 times and mixed with compound 2 at the concentration of 6 μg/mL. Then the mixture was incubated 2 h and centrifuged at 1,690 g (3,000 rpm) for 15 min at 4°C to harvest the cells. After washing with PBS for 3 times, PI (5 μg/mL) and DAPI (10 μg/mL) was used to dye cells 20 min respectively. Controls were carried out without compounds. The bacterial cells were then visualized and analyzed by employing the LEICA DM 2000 optical microscope with an oil-immersion objective (40 ×). The experiment was repeated three times with duplicates each time.
# MRSA [9] = test: Membrane depolarization study, DiSC3(5); format: cell-based, Staphylococcus aureus; conditions: MRSA 10^6 CFU/mL, 1 μM DiSC3(5), compound added after 30 min, ex 622 nm / em 670 nm
# Description: HDPs are known to act on the bacterial membrane. As the mimics of HDPs, compounds 1–14 were also expected to kill bacteria through disintegrating the bacterial cell membrane. To this end, 3, 3′- Dipropylthiadicarbocyanine iodide [DiSC3(5)] was used as a fluorogenic probe to detect and measure changes in transmembrane potential. Briefly, fluorescence intensity is very weak when it accumulates on hyperpolarized membranes due to their self-quenching (Niu et al., [2018]). […] This method was used to initially determine the bacterial membrane permeability caused by the compound 2.
# Mid log phase MRSA bacteria solution was obtained as above. Then, cells were collected and washed with 5 mM HEPES and 5 mM glucose respectively. 5 mM HEPES:5 mM glucose:100 mM KCl = 1:1:1 was used to resuspended bacteria cells (10^6 CFU/mL). Following that, 200 μL of bacterial suspension and 1 μM DiSC3(5) were included in a 96-well plate, and the fluorescence of the suspension was monitored at room temperature for 30 min at excitation wavelength of 622 nm and emission wavelength of 670 nm. After 30 min, compound 2 was added to the wells and the increased potential was monitored. The experiment was repeated three times with duplicates each time.
# [10] = mouse RBC in PBS, 37°C, 1 h, absorbance 540 nm, 1% Triton X-100 positive control
Compound,MIC MRSE [3] [µg/mL],MIC MRSA [4] [µg/mL],MIC VRE [5] [µg/mL],"Hemolysis (HC50) [2, 10] [µg/mL]",other results
"CCn1cc(C(=O)O)c(=O)c2cc(F)c(N3CCNCC3)cc21 [norfloxacin, reference compound]",,,,,Increase of MIC after 20 passages (MRSA [1]; 20 passages): 10 fold
"N-(2-(2-((1s,3s)-adamantan-1-yl)acetamido)-6-aminohexyl)-N-(2-((4-(2-(N-(2-(2-((3r,5r,7r)-adamantan-1-yl)acetamido)-6-aminohexyl) decanamido) acetamido) phenyl) amin)−2-oxoethyl)decanamide [Compound 7]",2,10,20,,Hemolysis (HC50) [2]: 250 µg/mL
"CCCCCCCCCC(=O)N[C@@H](CCCCN)CN(CC(=O)Nc1ccc(NC(=O)CN(C[C@H](CCCCN)NC(=O)CCCCCCCCC)C(=O)CC23CC4CC(CC(C4)C2)C3)cc1)C(=O)CC12CC3CC(CC(C3)C1)C2 [Compound 11, N,N'-((((1,4-phenylenebis(azanediyl))bis(2-oxoethane-2,1-diyl))bis ((2-((3r,5r,7r)-adamantan-1-yl)acetyl)azanediyl))bis(6-aminohexane-1,2-diyl))bis(decanamide)]",>25,>25,>25,>250,
"CCCCCCCCCCCCCCCC(=O)N(CC(=O)Nc1ccc(NC(=O)CN(C[C@@H](N)CCCCN)C(=O)CCCCCCCCCCCCCCC)cc1)C[C@@H](N)CCCCN [Compound 5, N,N'-((1,4-phenylenebis(azanediyl))bis(2-oxoethane-2,1-diyl))bis(N-(2,6-diaminohexyl)palmitamide)]",>25,>25,>25,>250,
"CCCCCCCCCC(=O)N(CC(=O)Nc1ccc(NC(=O)CN(C[C@@H](N)CCCCN)C(=O)CCCCCCCCC)cc1)C[C@@H](N)CCCCN [Compound 2, N,N'-((1,4-phenylenebis(azanediyl))bis(2-oxoethane-2,1-diyl))bis(N-(2,6-diaminohexyl)decanamide)]",,,,,"Time-kill result at 6 μg/mL (MRSA [6]; MRSA 10^6 CFU/mL, 6 μg/mL, 37°C, up to 120 min): still colonies after 120 mins; Time in which all bacteria were eradicated (MRSA [6]; MRSA 10^6 CFU/mL, 12 μg/mL, 37°C): ≤ 120 min; Time in which all bacteria were eradicated (MRSA [6]; MRSA 10^6 CFU/mL, 24 μg/mL, 37°C): ≤ 120 min; Time to eradicate MRSA (MRSA [6]; abstract statement, concentration not given): ≤ 2 h; Change of MIC values after 20 passages (MRSA [1]; 20 passages at half of the MIC): almost unchanged; TEM observation of treated MRSA (MRSA [7]): large amount of cell debris can be detected; DAPI / PI staining of treated MRSA (MRSA [8]): fluorescence could be detected in both channels; DiSC3(5) fluorescence intensity after adding compound (MRSA [9]): fluorescence intensity increased dramatically"
"CCCCCCCCCCCCCC(=O)N(CC(=O)Nc1ccc(NC(=O)CN(C[C@@H](N)CCCCN)C(=O)CCCCCCCCCCCCC)cc1)C[C@@H](N)CCCCN [Compound 4, N,N'-((1,4-phenylenebis(azanediyl))bis(2-oxoethane-2,1-diyl))bis(N-(2,6-diaminohexyl)tetradecanamide)]",>25,>25,>25,>250,
